Drawing on PubChem BioAssay (NCI), this text covers TGI for eight compounds.

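Cells were grown in 96-well plates and exposed to each compound for 48 hours at five concentrations; endpoints were interpolated linearly between bracketing concentrations, or set to the highest concentration if not reached. TGI: total growth inhibition.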

Test systems include K-562 leukemia; LOX IMVI melanoma; MOLT-4 leukemia; NCI-H23 lung; NCI-H460 lung; NCI-H522 lung; OVCAR-3 ovarian; RPMI-8226 leukemia; SF-268 CNS; SF-295 CNS; SK-MEL-28 melanoma; SK-OV-3 ovarian; SNB-19 CNS; SNB-75 CNS; UACC-257 melanoma; UACC-62 melanoma; UO-31 renal; OVCAR-4 ovarian.
Holding throughout (test): NCI tumour cell line growth inhibition, 48 h

`CS(C)(=O)=Nn1c(=O)n2n(c1=O)[C@H]1CC[C@@H]2C1`: the TGI in the test on K-562 leukemia, with LOX IMVI melanoma, in the test with MOLT-4 leukemia, in the test on NCI-H23 lung, in the test with NCI-H460 lung and in the test on NCI-H522 lung was greater than 100 µM in each case. Moreover, the TGI in the test on OVCAR-3 ovarian, in the test with RPMI-8226 leukemia, with SF-268 CNS, with SF-295 CNS, in the test on SK-MEL-28 melanoma and with SK-OV-3 ovarian was greater than 100 µM throughout. Moreover, the TGI in the test on SNB-19 CNS, with SNB-75 CNS, in the test with UACC-257 melanoma, in the test on UACC-62 melanoma and in the test on UO-31 renal was greater than 100 µM in each case.
`COc1cccc(/C=N/[N+](C)(C)C)c1O`: the TGI with K-562 leukemia, in the test on LOX IMVI melanoma, in the test with MOLT-4 leukemia, with NCI-H23 lung, with NCI-H460 lung and in the test with NCI-H522 lung was greater than 10 µM throughout. For the same compound, the TGI in the test with OVCAR-3 ovarian, with OVCAR-4 ovarian, in the test on RPMI-8226 leukemia, in the test with SF-268 CNS, in the test on SF-295 CNS and with SK-MEL-28 melanoma was greater than 10 µM each time. Also, the TGI in the test with SK-OV-3 ovarian, in the test with SNB-19 CNS, in the test with SNB-75 CNS, in the test with UACC-257 melanoma, with UACC-62 melanoma and in the test on UO-31 renal was greater than 10 µM each time.
Regarding `O=C1C=CC2(C=C1)O[C@H](CCc1ccccc1)[C@@H](CCc1ccccc1)O2`, the TGI in the test with K-562 leukemia is greater than 100 µM; in the test on LOX IMVI melanoma, 27.3 µM; in the test on MOLT-4 leukemia it was greater than 100 µM; in the test with NCI-H23 lung, greater than 100 µM; in the test on NCI-H460 lung, greater than 100 µM; in the test with OVCAR-3 ovarian it was greater than 100 µM. The TGI in the test with OVCAR-4 ovarian, in the test on RPMI-8226 leukemia, in the test on SF-268 CNS, in the test with SF-295 CNS, in the test with SK-MEL-28 melanoma and in the test with SK-OV-3 ovarian was greater than 100 µM in each case. In addition, the TGI in the test with SNB-19 CNS, in the test on SNB-75 CNS, in the test with UACC-257 melanoma, with UACC-62 melanoma and in the test with UO-31 renal was greater than 100 µM throughout.
For the compound `CC1=CC2=C(C=O)C(=O)[C@](C)(O)[C@@H](O)C2=CO1`, the TGI with K-562 leukemia is greater than 90.9 µM; in the test on LOX IMVI melanoma it was greater than 74.3 µM; with MOLT-4 leukemia, 41.3 µM; in the test with NCI-H23 lung, greater than 100 µM; in the test on NCI-H460 lung, greater than 100 µM; with NCI-H522 lung, 38.5 µM. For the same compound, the TGI in the test with OVCAR-3 ovarian is 5.58 µM; with OVCAR-4 ovarian, greater than 100 µM; in the test with RPMI-8226 leukemia, 47.1 µM; in the test with SF-268 CNS, greater than 69.4 µM; in the test on SF-295 CNS, greater than 100 µM; with SK-MEL-28 melanoma, greater than 78.1 µM. Also, the TGI with SK-OV-3 ovarian was 76.3 µM; in the test on SNB-19 CNS it was 5.5 µM; in the test with SNB-75 CNS it was greater than 100 µM; with UACC-257 melanoma, greater than 100 µM; with UACC-62 melanoma it was 71.5 µM; in the test with UO-31 renal, 43.8 µM.
Consider `COc1cc2c(cc1OCCCN1CCOCC1)N=C[C@@H]1CCCN1C2=O`, for which the TGI in the test on K-562 leukemia was greater than 100 µM; with LOX IMVI melanoma, greater than 100 µM; in the test on MOLT-4 leukemia, greater than 100 µM; in the test with NCI-H460 lung it was greater than 100 µM; in the test with NCI-H522 lung, 3.97 µM; in the test on OVCAR-3 ovarian, 8.08 µM. The TGI in the test with OVCAR-4 ovarian was 40.1 µM; in the test on RPMI-8226 leukemia, 5.83 µM; in the test with SF-268 CNS, greater than 100 µM; in the test on SF-295 CNS it was 42.1 µM; with SK-MEL-28 melanoma, 29.1 µM; in the test on SK-OV-3 ovarian it was 87.5 µM. Also, the TGI in the test with SNB-19 CNS was greater than 100 µM; with UACC-257 melanoma it was 78.9 µM; in the test on UACC-62 melanoma, 29.2 µM; in the test with UO-31 renal, greater than 100 µM.
On to `O=c1c2cc([N+](=O)[O-])ccc2[nH]n1Cc1ccccc1Cl`, for which the TGI in the test on K-562 leukemia, with LOX IMVI melanoma, in the test on MOLT-4 leukemia, in the test on NCI-H23 lung, with NCI-H460 lung and in the test with NCI-H522 lung was greater than 100 µM throughout. For the same compound, the TGI in the test with OVCAR-3 ovarian was greater than 100 µM; in the test on OVCAR-4 ovarian, greater than 100 µM; in the test on RPMI-8226 leukemia, 95.2 µM; in the test with SF-268 CNS it was greater than 100 µM; in the test with SF-295 CNS, greater than 100 µM; in the test with SK-MEL-28 melanoma, greater than 100 µM. Also, the TGI in the test with SNB-19 CNS, in the test with SNB-75 CNS, in the test on UACC-257 melanoma, in the test on UACC-62 melanoma and with UO-31 renal was greater than 100 µM in each case.
On to `Cc1ccc(C(=O)c2[nH]c(NCc3ccccc3)c(C(=S)Nc3ccccc3)c2N)cc1`, for which the TGI was determined as 5.11 µM in the test with K-562 leukemia; 3.97 µM with LOX IMVI melanoma; 6.38 µM in the test on MOLT-4 leukemia; 27.1 µM with NCI-H23 lung; 18.8 µM with NCI-H460 lung; 4.96 µM in the test with NCI-H522 lung. In addition, the TGI in the test on OVCAR-3 ovarian was 25.2 µM; with OVCAR-4 ovarian, 12.5 µM; in the test with RPMI-8226 leukemia it was 5 µM; in the test with SF-268 CNS, 28.8 µM; in the test on SF-295 CNS it was 17.2 µM; with SK-MEL-28 melanoma, 9.97 µM. Moreover, the TGI in the test with SK-OV-3 ovarian was determined as 8.04 µM; in the test with SNB-19 CNS, 29.1 µM; in the test on SNB-75 CNS it was 16.6 µM; in the test on UACC-257 melanoma, 18.4 µM; in the test on UACC-62 melanoma, 25.2 µM; with UO-31 renal, 18.2 µM.
`C=C1C(=O)OC2/C=C(\CO)C3OC3C3OC3(C)CC(OC(=O)/C(=C/C)COC(C)=O)C12` (centres undefined): the TGI was greater than 100 µM with K-562 leukemia; 3.24 µM in the test on LOX IMVI melanoma; greater than 100 µM in the test with MOLT-4 leukemia; 21.7 µM in the test with NCI-H23 lung; 28.4 µM in the test with NCI-H460 lung; 1.2 µM in the test with NCI-H522 lung. Further, the TGI in the test on OVCAR-3 ovarian is 11.4 µM; in the test on OVCAR-4 ovarian, 24.1 µM; with RPMI-8226 leukemia it was greater than 100 µM; with SF-268 CNS it was 27.1 µM; in the test with SF-295 CNS, 46.7 µM; in the test on SK-MEL-28 melanoma it was 3.72 µM. In addition, the TGI with SK-OV-3 ovarian came out at 45.7 µM; in the test on SNB-19 CNS it was 28.6 µM; with SNB-75 CNS, 23 µM; in the test on UACC-257 melanoma, 12.6 µM; with UACC-62 melanoma, 6.2 µM; with UO-31 renal it was 23.7 µM.
